ChEMBL document CHEMBL5137068, “Discovery of Hexahydrofuro[3,2-b]furans as New Kinase-Selective and Orally Bioavailable JAK3 Inhibitors for the Treatment of Leukemia Harboring a JAK3 Activating Mutant” (J Med Chem, 2022)
Active and inactive are the calls of the source. The rule behind the calls is not given here.

How the values were obtained:
[1] = Half life in 12 hr fasted SPF Sprague-Dawley rat at 15 mg/kg, po upon 2 hrs fasting post-administration measured upto 24 hrs; format: ADME, organism-based; settings: in vivo
[2] = Cmax in 12 hr fasted SPF Sprague-Dawley rat at 5 mg/kg, iv upon 2 hrs fasting post-administration measured upto 24 hrs; format: ADME, organism-based; design: dose 5 mg/kg, time < 24 hrs, route iv; settings: in vivo
[3] = Cmax in 12 hr fasted SPF Sprague-Dawley rat at 15 mg/kg, po upon 2 hrs fasting post-administration measured upto 24 hrs; format: ADME, organism-based; design: time < 24 hrs, dose 15 mg/kg, route po; settings: in vivo
[4] = molecular target: Tyrosine-protein kinase JAK2 (Homo sapiens, UniProt O60674); test: Inhibition of human JAK2 at 0.5 uM relative to control
[5] = molecular target: T1, Non-receptor tyrosine-protein kinase TYK2 (Homo sapiens, UniProt P29597); test: Inhibition of human TYK2 at 0.5 uM relative to control
T1 sequence (P29597 whole entry): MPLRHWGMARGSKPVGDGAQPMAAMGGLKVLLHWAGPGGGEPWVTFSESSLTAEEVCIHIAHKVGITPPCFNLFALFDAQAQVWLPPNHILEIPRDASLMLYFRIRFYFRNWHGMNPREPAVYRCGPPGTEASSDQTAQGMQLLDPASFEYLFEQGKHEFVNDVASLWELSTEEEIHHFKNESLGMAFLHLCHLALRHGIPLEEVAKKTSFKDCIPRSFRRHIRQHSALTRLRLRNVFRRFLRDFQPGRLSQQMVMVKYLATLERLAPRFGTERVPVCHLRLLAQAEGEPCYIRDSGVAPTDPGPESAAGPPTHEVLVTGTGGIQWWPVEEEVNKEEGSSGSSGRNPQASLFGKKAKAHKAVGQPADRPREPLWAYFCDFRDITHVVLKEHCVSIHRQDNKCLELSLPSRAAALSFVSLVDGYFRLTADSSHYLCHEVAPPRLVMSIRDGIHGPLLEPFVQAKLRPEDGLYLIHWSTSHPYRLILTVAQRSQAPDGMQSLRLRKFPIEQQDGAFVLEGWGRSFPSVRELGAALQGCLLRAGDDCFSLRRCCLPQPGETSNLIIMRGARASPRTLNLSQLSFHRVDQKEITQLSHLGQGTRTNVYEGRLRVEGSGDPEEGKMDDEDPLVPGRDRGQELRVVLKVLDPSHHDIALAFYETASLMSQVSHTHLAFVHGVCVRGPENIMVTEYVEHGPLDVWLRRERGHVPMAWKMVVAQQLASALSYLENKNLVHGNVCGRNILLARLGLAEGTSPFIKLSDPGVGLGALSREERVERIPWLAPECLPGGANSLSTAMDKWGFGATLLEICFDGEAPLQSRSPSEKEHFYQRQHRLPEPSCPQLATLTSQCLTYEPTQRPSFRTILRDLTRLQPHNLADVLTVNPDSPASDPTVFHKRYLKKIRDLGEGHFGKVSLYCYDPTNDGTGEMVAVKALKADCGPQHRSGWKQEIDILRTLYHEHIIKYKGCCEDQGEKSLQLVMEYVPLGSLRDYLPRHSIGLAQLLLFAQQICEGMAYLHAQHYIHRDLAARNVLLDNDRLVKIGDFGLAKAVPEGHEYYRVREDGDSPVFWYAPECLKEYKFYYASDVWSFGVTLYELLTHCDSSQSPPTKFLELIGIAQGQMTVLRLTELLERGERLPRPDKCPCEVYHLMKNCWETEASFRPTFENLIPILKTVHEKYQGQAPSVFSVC

[6] = molecular target: Receptor-type tyrosine-protein kinase FLT3 (Homo sapiens, UniProt P36888); test: Inhibition of human FLT3
Sequence of Receptor-type tyrosine-protein kinase FLT3 (P36888 whole entry): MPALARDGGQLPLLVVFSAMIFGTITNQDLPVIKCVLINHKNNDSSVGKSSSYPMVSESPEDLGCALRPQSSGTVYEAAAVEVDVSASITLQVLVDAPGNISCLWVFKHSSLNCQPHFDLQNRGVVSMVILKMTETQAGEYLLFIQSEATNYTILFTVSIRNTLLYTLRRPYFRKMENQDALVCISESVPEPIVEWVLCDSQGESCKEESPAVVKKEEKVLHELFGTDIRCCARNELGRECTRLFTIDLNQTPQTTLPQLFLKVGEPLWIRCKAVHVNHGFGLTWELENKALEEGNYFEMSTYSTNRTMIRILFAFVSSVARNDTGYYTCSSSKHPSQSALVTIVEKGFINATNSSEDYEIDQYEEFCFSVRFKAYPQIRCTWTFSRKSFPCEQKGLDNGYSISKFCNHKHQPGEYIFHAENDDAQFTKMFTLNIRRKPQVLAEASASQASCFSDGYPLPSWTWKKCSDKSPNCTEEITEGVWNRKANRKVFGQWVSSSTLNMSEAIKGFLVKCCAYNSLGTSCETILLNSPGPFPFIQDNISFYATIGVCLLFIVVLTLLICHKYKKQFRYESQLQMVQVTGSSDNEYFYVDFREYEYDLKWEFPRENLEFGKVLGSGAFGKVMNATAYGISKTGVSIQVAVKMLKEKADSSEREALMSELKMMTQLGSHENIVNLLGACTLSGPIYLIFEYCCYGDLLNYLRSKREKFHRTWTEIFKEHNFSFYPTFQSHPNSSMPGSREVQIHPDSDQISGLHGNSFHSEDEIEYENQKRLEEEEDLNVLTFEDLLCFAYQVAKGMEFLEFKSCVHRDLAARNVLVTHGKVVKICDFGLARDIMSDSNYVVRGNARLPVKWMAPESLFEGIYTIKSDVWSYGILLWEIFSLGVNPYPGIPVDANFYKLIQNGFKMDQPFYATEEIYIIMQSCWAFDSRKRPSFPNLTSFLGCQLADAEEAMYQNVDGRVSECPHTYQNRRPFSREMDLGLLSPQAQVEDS

[7] = molecular target: T1, Non-receptor tyrosine-protein kinase TYK2; test: Inhibition of human TYK2
[8] = molecular target: Tyrosine-protein kinase Blk (Homo sapiens) (UniProt P51451); test: Inhibition of BLK (unknown origin) at 0.5 uM relative to control
[9] = molecular target: Cytoplasmic tyrosine-protein kinase BMX (Homo sapiens) (UniProt P51813); test: Inhibition of BMX (unknown origin) at 0.5 uM relative to control
[10] = molecular target: [Pyruvate dehydrogenase (acetyl-transferring)] kinase isozyme 1, mitochondrial (Homo sapiens) (UniProt Q15118); test: Inhibition of PDK1 (unknown origin) at 0.5 uM relative to control
[11] = molecular target: Receptor tyrosine-protein kinase erbB-2 (Homo sapiens) (UniProt P04626); test: Inhibition of HER2 (unknown origin) at 0.5 uM relative to control
Sequence of Receptor tyrosine-protein kinase erbB-2 (Homo sapiens) (P04626 whole entry): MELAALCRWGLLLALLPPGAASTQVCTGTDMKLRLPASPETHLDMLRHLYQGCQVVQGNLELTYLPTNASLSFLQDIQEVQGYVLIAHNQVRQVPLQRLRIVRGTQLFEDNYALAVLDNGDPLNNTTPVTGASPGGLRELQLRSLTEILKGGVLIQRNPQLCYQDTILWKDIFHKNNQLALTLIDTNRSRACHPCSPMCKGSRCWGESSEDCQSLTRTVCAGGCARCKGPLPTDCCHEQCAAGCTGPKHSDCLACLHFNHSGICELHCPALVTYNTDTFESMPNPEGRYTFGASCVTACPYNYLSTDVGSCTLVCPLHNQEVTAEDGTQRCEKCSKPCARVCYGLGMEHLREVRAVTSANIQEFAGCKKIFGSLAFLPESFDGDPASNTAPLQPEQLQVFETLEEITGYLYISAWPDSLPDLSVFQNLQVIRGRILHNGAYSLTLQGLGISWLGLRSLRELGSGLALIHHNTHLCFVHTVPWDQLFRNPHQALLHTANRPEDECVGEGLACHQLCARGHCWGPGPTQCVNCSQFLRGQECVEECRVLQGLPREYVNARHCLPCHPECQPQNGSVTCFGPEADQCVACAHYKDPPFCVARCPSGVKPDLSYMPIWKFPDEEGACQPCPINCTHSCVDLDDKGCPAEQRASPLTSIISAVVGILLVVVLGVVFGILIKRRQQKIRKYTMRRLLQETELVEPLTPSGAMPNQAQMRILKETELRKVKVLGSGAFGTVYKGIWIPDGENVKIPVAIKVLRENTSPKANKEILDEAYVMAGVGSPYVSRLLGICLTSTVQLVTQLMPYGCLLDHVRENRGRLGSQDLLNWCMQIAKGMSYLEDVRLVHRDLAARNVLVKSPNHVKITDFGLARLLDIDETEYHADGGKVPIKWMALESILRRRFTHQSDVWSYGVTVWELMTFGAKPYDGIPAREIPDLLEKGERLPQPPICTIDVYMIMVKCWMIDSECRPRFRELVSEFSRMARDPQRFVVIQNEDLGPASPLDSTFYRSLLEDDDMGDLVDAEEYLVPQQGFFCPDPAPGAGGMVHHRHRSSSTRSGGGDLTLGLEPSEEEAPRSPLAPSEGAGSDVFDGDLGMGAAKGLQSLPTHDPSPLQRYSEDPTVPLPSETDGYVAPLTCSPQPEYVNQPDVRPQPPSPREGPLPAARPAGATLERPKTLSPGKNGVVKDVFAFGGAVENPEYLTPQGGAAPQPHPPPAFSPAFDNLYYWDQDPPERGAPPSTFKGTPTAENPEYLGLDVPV

[12] = molecular target: T2, Signal transducer and activator of transcription 5A (Homo sapiens) (UniProt P42229); test: Inhibition of STAT5 in human U-937 cells assessed as decrease in P-STAT5 phosphorylation at 200 uM pretreated for 10 hrs followed by compound washout by immunoblotting analysis; format: cell-based
T2 sequence (whole entry): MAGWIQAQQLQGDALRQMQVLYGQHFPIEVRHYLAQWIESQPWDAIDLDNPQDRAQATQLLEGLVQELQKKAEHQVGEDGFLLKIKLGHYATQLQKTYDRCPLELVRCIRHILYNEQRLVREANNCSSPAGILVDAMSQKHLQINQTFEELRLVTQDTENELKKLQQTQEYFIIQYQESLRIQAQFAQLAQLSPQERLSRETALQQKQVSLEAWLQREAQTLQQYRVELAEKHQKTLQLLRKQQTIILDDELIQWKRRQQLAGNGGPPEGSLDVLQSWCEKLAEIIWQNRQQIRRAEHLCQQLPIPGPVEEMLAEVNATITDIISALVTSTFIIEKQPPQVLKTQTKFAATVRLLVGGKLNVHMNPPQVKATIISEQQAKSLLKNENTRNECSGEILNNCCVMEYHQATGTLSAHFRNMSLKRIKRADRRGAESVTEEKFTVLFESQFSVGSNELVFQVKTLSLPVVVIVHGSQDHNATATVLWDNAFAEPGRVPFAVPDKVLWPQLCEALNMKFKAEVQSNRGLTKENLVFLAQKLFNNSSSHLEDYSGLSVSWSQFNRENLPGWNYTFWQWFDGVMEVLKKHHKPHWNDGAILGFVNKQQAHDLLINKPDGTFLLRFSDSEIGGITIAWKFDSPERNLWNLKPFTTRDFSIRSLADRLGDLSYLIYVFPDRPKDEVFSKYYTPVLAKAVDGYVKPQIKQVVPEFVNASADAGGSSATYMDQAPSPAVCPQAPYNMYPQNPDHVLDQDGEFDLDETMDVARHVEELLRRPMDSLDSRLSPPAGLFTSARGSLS

[13] = molecular target: Signal transducer and activator of transcription 3 (Homo sapiens) (UniProt P40763); test: Inhibition of STAT3 activation in human U-937 cells assessed as decrease in P-STAT3 incubated for 0 to 24 hrs by Western blot analysis; format: cell-based; settings: dose 200.0 µM, time 0-24 hrs, DDE = dose-dependent effect
[14] = molecular target: T2, Signal transducer and activator of transcription 5A (Homo sapiens); test: Inhibition of STAT5 activation in human U-937 cells assessed as decrease in P-STAT5 incubated for 0 to 24 hrs by Western blot analysis; format: cell-based; settings: time 0-24 hrs, DDE = dose-dependent effect
U-937 [15] = test: Induction of cell cycle arrest in human U-937 cells assessed as accumulation at G0/G1 phase at 100 nM measured after 24 hrs by propidium iodide staining based flow cytometric analysis (reference value: 62.95%); format: functional
U-937 [16] = test: Induction of cell cycle arrest in human U-937 cells assessed as accumulation at S phase at 3.7 nM measured after 24 hrs by propidium iodide staining based flow cytometric analysis (reference value: 15.35%); format: functional
U-937 [17] = test: Induction of cell cycle arrest in human U-937 cells assessed as accumulation at S phase at 33 nM measured after 24 hrs by propidium iodide staining based flow cytometric analysis (reference value: 15.35%); format: functional
U-937 [18] = test: Induction of cell cycle arrest in human U-937 cells assessed as accumulation at S phase at 100 nM measured after 24 hrs by propidium iodide staining based flow cytometric analysis (reference value: 15.35%); format: functional
U-937 [19] = test: Induction of cell cycle arrest in human U-937 cells assessed as accumulation at S phase at 300 nM measured after 24 hrs by propidium iodide staining based flow cytometric analysis (reference value: 15.35%); format: functional
U-937 [20] = test: Induction of cell cycle arrest in human U-937 cells assessed as accumulation at G2/M phase at 33 nM measured after 24 hrs by propidium iodide staining based flow cytometric analysis (reference value: 21.41%); format: functional
U-937 [21] = test: Induction of cell cycle arrest in human U-937 cells assessed as downregulation of CDK2 at 0 to 300 nM measured after 24 hrs by western blot analysis; format: functional, cell-based; settings: dose 0-300 nM
U-937 [22] = test: Induction of cell cycle arrest in human U-937 cells assessed as downregulation of CDK4 at 0 to 300 nM measured after 24 hrs by western blot analysis; format: functional, cell-based; settings: dose 0-300 nM
[23] = molecular target: NUAK family SNF1-like kinase 1 (Homo sapiens) (UniProt O60285); test: Inhibition of human ARK5 at 0.5 uM assessed as competition rate relative to control
Sequence of NUAK family SNF1-like kinase 1 (Homo sapiens) (O60285 whole entry): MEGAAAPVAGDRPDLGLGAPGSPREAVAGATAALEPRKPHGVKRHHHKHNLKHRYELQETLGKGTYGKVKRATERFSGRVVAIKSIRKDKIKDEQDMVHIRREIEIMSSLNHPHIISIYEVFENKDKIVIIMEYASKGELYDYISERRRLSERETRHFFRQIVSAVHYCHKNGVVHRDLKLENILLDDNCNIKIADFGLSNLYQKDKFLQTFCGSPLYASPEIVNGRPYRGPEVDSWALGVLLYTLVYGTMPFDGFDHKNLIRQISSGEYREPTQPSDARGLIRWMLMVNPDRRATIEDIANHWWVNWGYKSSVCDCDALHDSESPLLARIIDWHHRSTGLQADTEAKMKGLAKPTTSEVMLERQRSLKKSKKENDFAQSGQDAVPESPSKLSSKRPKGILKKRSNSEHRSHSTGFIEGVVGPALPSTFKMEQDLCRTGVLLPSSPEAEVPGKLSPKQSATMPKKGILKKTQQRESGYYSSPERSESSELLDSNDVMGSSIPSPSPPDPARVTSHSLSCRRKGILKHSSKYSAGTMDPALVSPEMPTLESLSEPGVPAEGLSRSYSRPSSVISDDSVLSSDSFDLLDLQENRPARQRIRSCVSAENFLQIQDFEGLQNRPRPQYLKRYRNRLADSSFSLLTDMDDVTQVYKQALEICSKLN

[24] = molecular target: Tyrosine-protein kinase Tec (Homo sapiens) (UniProt P42680); test: Inhibition of TEC (unknown origin) at 0.5 uM assessed as competition rate relative to control
[25] = molecular target: Tyrosine-protein kinase BTK (Homo sapiens) (UniProt Q06187); test: Inhibition of BTK (unknown origin) at 0.5 uM assessed as competition rate relative to control
Sequence of Tyrosine-protein kinase BTK (Homo sapiens) (Q06187 whole entry): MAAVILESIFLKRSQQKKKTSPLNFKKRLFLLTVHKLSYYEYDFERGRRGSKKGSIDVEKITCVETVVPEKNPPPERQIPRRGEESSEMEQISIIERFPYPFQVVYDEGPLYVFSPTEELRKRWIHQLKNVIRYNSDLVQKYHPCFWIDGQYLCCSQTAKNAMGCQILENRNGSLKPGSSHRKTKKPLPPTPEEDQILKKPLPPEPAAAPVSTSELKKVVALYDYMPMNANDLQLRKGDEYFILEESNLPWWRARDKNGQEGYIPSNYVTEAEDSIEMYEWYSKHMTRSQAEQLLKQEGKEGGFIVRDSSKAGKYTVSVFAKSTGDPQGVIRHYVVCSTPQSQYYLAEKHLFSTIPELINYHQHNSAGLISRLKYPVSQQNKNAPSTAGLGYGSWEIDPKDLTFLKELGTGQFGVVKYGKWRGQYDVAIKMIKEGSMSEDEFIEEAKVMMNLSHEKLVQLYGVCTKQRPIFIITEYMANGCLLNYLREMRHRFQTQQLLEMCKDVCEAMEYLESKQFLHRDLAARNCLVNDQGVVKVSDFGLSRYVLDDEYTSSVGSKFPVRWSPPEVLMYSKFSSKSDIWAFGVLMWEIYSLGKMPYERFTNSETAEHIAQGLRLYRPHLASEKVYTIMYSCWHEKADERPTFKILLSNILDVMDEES

[26] = molecular target: Epidermal growth factor receptor (Homo sapiens) (UniProt P00533); test: Inhibition of EGFR (unknown origin) at 0.5 uM relative to control
BaF3 [27] = test: cells; settings: Mus musculus, BaF3, 72 h
Description: Antiproliferative activity against mouse BaF3 parent cell measured after 72 hrs by CCK-8 assay

BaF3 [28] = test: cells; settings: Mus musculus, BaF3, 72 h; remark: listed apart in the source

Structure (SMILES): C=CC(=O)Nc1cc(Nc2ncc(Cl)c(O[C@@H]3CO[C@H]4[C@@H]3OC[C@H]4OC)n2)ccc1N(C)CCN(C)C
- half-life [1]: 58.8 min
- Cmax [2]: 911 ng/mL
- Cmax [3]: 238 ng/mL
- inhibition [4]: 98%
- inhibition [5]: 36%
- IC50 [6]: 0.132 µM
- IC50 [7]: 0.365 µM
- inhibition [8]: 60%
- inhibition [9]: 71%
- inhibition [10]: 111%
- inhibition [11]: 115%
- inhibition [12]: Active
- inhibition [13]: Dde
- inhibition [14]: Dde
- Activity (U-937 [15]): 72.06%
- Activity (U-937 [16]): 15.23%
- Activity (U-937 [17]): 13.62%
- Activity (U-937 [18]): 9.85%
- Activity (U-937 [19]): 7.5%
- Activity (U-937 [20]): 21.31%
- Activity (U-937 [21]): Active
- Activity (U-937 [22]): Active
- inhibition [23]: 70%
- inhibition [24]: 40%
- inhibition [25]: 40%
- inhibition [26]: 94%
- IC50 (BaF3 [27]): 0.165 µM
- IC50 (BaF3 [28]): 0.134 µM
